Values quoted from earlier work as cited in patent US8518371B2, “Hypoxia-selective, weakly basic 2-nitroimidazole delivery agents and methods of use thereof” (Natural Pharmacia International, Inc., priority 2006, dated 2013).

Assays:
[1] = escalating, rarely to
animal models = conditions: in vivo
[2] = in vivo

Molecule	MTD [1] [mg/m^2]	safety and efficacy in animal models (animal models)	selectivity for tumor cells (tumor cells)	retention times in tissues [2]
CC[C@]1(O)C[C@@H]2CN(CCc3c([nH]c4ccccc34)[C@@](C(=O)OC)(c3cc4c(cc3OC)N(C)[C@H]3[C@@](O)(C(=O)OC)[C@H](OC(C)=O)[C@]5(CC)C=CCN6CC[C@]43[C@@H]65)C2)C1 [vinblastine]	≤ 18.5			
N[C@@H](Cc1ccc(B(O)O)cc1)C(=O)O [BPA, L-4-dihydroxy-borylphenylalanine]		safe and efficacious	moderate	low
disodium mercapto-closo-dodecaborate [BSH]		safe and efficacious	moderate	low
